Assays:
Test in all cases: relative viability (nuclei count vs DMSO), 5 days (fraction); higher = more cells survive
KIN001-266 + Luminespib = compound: CCN1CCC(CC1)N2C=C(N=N2)CNC3=CC4=C(C(=CN=C4C(=C3)Cl)C#N)NC5=CC(=C(C=C5)F)Cl [KIN001-266] + CCNC(=O)c1noc(-c2cc(C(C)C)c(O)cc2O)c1-c1ccc(CN2CCOCC2)cc1 [Luminespib] (partner 0.01 µM)
In short: (§1)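 Values are medians from duplicate plates. Each reflects relative viability, defined as the nuclei count of treated wells over that of vehicle wells. Lung cancer cell lines in 1536-well plates were pin-tool dosed one day after seeding with one drug alone or with a fixed anchor-drug dose plus five library-drug doses (not always all listed) in √10 steps, then fixed, stained and imaged at 4× after 5 days.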

KIN001-266 + Palbociclib = compound: CCN1CCC(CC1)N2C=C(N=N2)CNC3=CC4=C(C(=CN=C4C(=C3)Cl)C#N)NC5=CC(=C(C=C5)F)Cl [KIN001-266] + CC(=O)c1c(C)c2cnc(Nc3ccc(N4CCNCC4)cn3)nc2n(C2CCCC2)c1=O [Palbociclib] (partner 0.5 µM)
In short: as §1

KIN001-266 + Pictilisib = compound: CCN1CCC(CC1)N2C=C(N=N2)CNC3=CC4=C(C(=CN=C4C(=C3)Cl)C#N)NC5=CC(=C(C=C5)F)Cl [KIN001-266] + CS(=O)(=O)N1CCN(Cc2cc3nc(-c4cccc5[nH]ncc45)nc(N4CCOCC4)c3s2)CC1 [Pictilisib] (partner 1 µM)
In short: as §1

KIN001-266 + OSI-027 = compound: CCN1CCC(CC1)N2C=C(N=N2)CNC3=CC4=C(C(=CN=C4C(=C3)Cl)C#N)NC5=CC(=C(C=C5)F)Cl [KIN001-266] + COc1cccc2cc(-c3nc([C@H]4CC[C@H](C(=O)O)CC4)n4ncnc(N)c34)[nH]c12 [OSI-027] (partner 0.5 µM)
In short: as §1

| Cell Line | relative viability (KIN001-266 + Luminespib; first compound 0.08 µM) | relative viability (KIN001-266 + Luminespib; first compound 0.253 µM) | relative viability (KIN001-266 + Luminespib; first compound 0.8 µM) | relative viability (KIN001-266 + Luminespib; first compound 2.53 µM) | relative viability (KIN001-266 + Luminespib; first compound 8 µM) | relative viability (KIN001-266 + Palbociclib; first compound 0.08 µM) | relative viability (KIN001-266 + Palbociclib; first compound 0.253 µM) | relative viability (KIN001-266 + Palbociclib; first compound 0.8 µM) | relative viability (KIN001-266 + Palbociclib; first compound 2.53 µM) | relative viability (KIN001-266 + Palbociclib; first compound 8 µM) | relative viability (KIN001-266 + Pictilisib; first compound 0.08 µM) | relative viability (KIN001-266 + Pictilisib; first compound 0.253 µM) | relative viability (KIN001-266 + Pictilisib; first compound 0.8 µM) | relative viability (KIN001-266 + Pictilisib; first compound 2.53 µM) | relative viability (KIN001-266 + Pictilisib; first compound 8 µM) | relative viability (KIN001-266 + OSI-027; first compound 0.08 µM) | relative viability (KIN001-266 + OSI-027; first compound 0.253 µM) | relative viability (KIN001-266 + OSI-027; first compound 0.8 µM) | relative viability (KIN001-266 + OSI-027; first compound 2.53 µM) | relative viability (KIN001-266 + OSI-027; first compound 8 µM) |
| --- | --- | --- | --- | --- | --- | --- | --- | --- | --- | --- | --- | --- | --- | --- | --- | --- | --- | --- | --- | --- |
| COR-L 105 | 0.616 | 0.802 | 0.758 | 0.743 | 1.02 | 0.399 | 0.386 | 0.376 | 0.407 | 0.436 | 0.422 | 0.44 | 0.352 | 0.452 | 0.43 | 0.683 | 0.822 | 0.66 | 0.645 | 0.576 |
| NCI-H441 | 0.32 | 0.354 | 0.328 | 0.286 | 0.302 | 0.294 | 0.223 | 0.217 | 0.22 | 0.259 | 0.559 | 0.381 | 0.481 | 0.459 | 0.415 | 0.829 | 0.695 | 0.585 | 0.563 | 0.479 |
| NCI-H2126 | 0.868 | 0.871 | 0.906 | 0.865 | 0.978 | 0.324 | 0.366 | 0.387 | 0.358 | 0.365 | 0.53 | 0.538 | 0.449 | 0.434 | 0.5 | 0.712 | 0.754 | 0.696 | 0.635 | 0.618 |
| HCC-44 | 1.02 | 1.04 | 1.1 | 1.01 | 1.19 | 1.06 | 0.973 | 0.95 | 0.949 | 1.03 | 0.657 | 1.76 | 0.593 | 0.636 | 0.57 | 0.5 | 0.664 | 0.605 | 0.441 | 0.593 |
| NCI-H460 | 0.0348 | 0.0385 | 0.0335 | 0.0269 | 0.0404 | 0.175 | 0.161 | 0.263 | 0.176 | 0.153 | 0.5 | 0.339 | 0.308 | 0.355 | 0.302 | 0.623 | 0.667 | 0.781 | 0.605 | 0.574 |
| SK-LU-1 | 0.206 | 0.215 | 0.223 | 0.22 | 0.189 | 0.393 | 0.381 | 0.421 | 0.373 | 0.339 | 0.562 | 0.546 | 0.637 | 0.467 | 0.434 | 0.358 | 0.307 | 0.403 | 0.346 | 0.26 |
| NCI-H322M | 0.86 | 0.576 | 1.05 | 0.83 | 0.926 | 0.455 | 0.479 | 0.477 | 0.387 | 0.448 | 0.593 | 0.713 | 0.451 | 0.456 | 0.484 | 0.56 | 0.598 | 0.593 | 0.458 | 0.579 |
| EKVX | 0.86 | 0.869 | 0.735 | 0.89 | 0.986 | 0.402 | 0.406 | 0.403 | 0.391 | 0.367 | 0.386 | 0.417 | 0.425 | 0.405 | 0.4 | 0.702 | 0.706 | 0.683 | 0.685 | 0.52 |
| NCI-H1734 | 0.196 | 0.195 | 0.191 | 0.19 | 0.193 | 0.342 | 0.539 | 0.345 | 0.321 | 0.294 | 0.521 | 0.452 | 0.454 | 0.418 | 0.43 | 0.621 | 0.583 | 0.578 | 0.549 | 0.522 |
| ABC-1 | 0.757 | 0.956 | 0.655 | 1.02 | 0.378 | 0.789 | 0.799 | 0.598 | 0.65 | 0.558 | 0.864 | 0.927 | 0.926 | 0.65 | 0.547 | 0.649 | 0.436 | 0.622 | 0.392 | 0.375 |
| NCI-H520 | 0.246 | 0.289 | 0.228 | 0.192 | 0.22 | 0.23 | 0.236 | 0.243 | 0.165 | 0.237 | 0.311 | 0.242 | 0.289 | 0.237 | 0.286 | 0.232 | 0.351 | 0.278 | 0.235 | 0.297 |
| EPLC-272H | 0.253 | 0.268 | 0.323 | 0.181 | 0.176 | 0.348 | 0.354 | 0.275 | 0.307 | 0.312 | 0.349 | 0.336 | 0.305 | 0.265 | 0.289 | 0.306 | 0.303 | 0.242 | 0.249 | 0.264 |
| UMC-11 | 0.986 | 0.977 | 1.03 | 0.937 | 0.449 | 0.293 | 0.338 | 0.304 | 0.329 | 0.391 | 0.808 | 0.841 | 0.827 | 0.5 | 0.677 | 0.426 | 0.485 | 0.511 | 0.455 | 0.367 |
| NCI-H1792 | 0.414 | 0.381 | 0.403 | 0.628 | 0.486 | 0.675 | 0.719 | 0.637 | 0.681 | 0.638 | 0.312 | 0.282 | 0.325 | 0.305 | 0.265 | 0.772 | 0.711 | 0.729 | 0.732 | 0.691 |
| NCI-H1993 | 0.872 | 1.02 | 0.705 | 0.736 | 0.533 | 0.68 | 0.653 | 0.66 | 0.688 | 0.58 | 0.872 | 0.691 | 0.967 | 0.837 | 0.976 | 0.562 | 0.537 | 0.607 | 0.582 | 0.63 |
| NCI-H1793 | 0.231 | 0.436 | 0.171 | 0.194 | 0.196 | 0.316 | 0.358 |  | 0.354 | 0.307 | 0.287 | 0.332 | 0.305 | 0.253 | 0.322 | 0.332 | 0.254 | 0.231 | 0.258 | 0.204 |
